Earlier results as cited in patent publication US20040132815A1, “Preventive/remedial agent for inflammatory disease in oral-cavity mucosa and the like” (priority 2001, published 2004).

Conditions: compared with the disodium salt

In the case of `CC(C)c1cc2c(cc1S(=O)(=O)[O-])[C@@]1(C)CCC[C@@](C)(C(=O)O)[C@@H]1CC2.[Na+]` [Sulfodehydroabietic acid monosodium salt], the hygroscopicity is listed as “less hygroscopic” and the stability is listed as “more stable”.
